Test results as given in patent publication US20150266857A1, “NOVEL 3-INDOL SUBSTITUTED DERIVATIVES, PHARMACEUTICAL COMPOSITIONS AND METHODS FOR USE” (iTeos Therapeutics, priority 2014, published 2015).

Experiments:
[1] = molecular target: T1, human recombinant TDO2 enzyme (Homo sapiens, UniProt P48775); assay: Assay for TDO2 enzymatic activity determination; assay type: biochemical; settings: human recombinant TDO2, L-Trp 1 mM, kynurenine absorbance at 480 nm
T1 construct: made in house
Description: To measure the TDO2 activity, the procedure described in Dolusic et al. J. Med. Chem.; 2011, 54, […] was adapted: the reaction mixture contained (final concentrations) potassium phosphate buffer (50 mM, pH 7.5), ascorbic acid (0.25 M), methylene blue (0.125 μM), catalase (40 units/mL, from bovine liver, Sigma), and human recombinant TDO2 enzyme (prepared as described in Dolusic et al. J. Med. Chem.; 2011, 54, 5320-5334; 0.9 μg) without or with the compounds of the present invention at the indicated concentrations (total volume 112.5 μL). The reaction was initiated by the addition of 37.5 μL of L-Trp (final concentration 1 mM) at room temperature. The reaction was conducted at room temperature during one hour and stopped by the addition of 30 μL of 30% (w/v) trichloroacetic acid.
To convert N-formylkynurenine into kynurenine, the reaction mixture was incubated at 65° C. for 30 min. Then 150 μL of the reaction mixture was mixed with 120 μL of 2.5% (w/v) 4-(dimethylamino)-benzaldehyde in acetic acid and incubated for 5 min at room temperature. Kynurenine concentrations were determined by measuring the absorbance at 480 nm. A standard curve was made with pure kynurenine. The TDO activity was measured as described above using ten serial concentrations of the compounds of the present invention. Data were fitted using the Prism™ software (GraphPad Software, Inc.) using standard parameters.

[2] = molecular target: T2, murine mastocytoma P815 cells overexpressing hTDO2 (Homo sapiens, UniProt P48775); assay: Cellular assay for TDO2 activity, hTDO2-overexpressing P815 cells; assay type: cell-based; settings: P815 cells overexpressing hTDO2, overnight incubation, kynurenine in supernatant
T2 construct: expressed in transfected cells; host or cells: murine mastocytoma P815 cells
T2 sequence (P48775 whole entry): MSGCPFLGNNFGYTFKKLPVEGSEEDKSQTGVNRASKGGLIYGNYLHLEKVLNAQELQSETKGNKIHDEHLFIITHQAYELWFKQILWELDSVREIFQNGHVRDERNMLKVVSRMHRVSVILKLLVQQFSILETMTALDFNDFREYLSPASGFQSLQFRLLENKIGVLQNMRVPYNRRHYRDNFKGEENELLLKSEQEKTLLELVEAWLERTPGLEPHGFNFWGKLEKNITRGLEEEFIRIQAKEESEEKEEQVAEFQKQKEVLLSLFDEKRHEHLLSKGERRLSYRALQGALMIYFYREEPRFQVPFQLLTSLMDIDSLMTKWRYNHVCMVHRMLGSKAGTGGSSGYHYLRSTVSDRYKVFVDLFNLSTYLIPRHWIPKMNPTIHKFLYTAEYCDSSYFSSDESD
Description: The assay (adapted from Pilotte L et al., Proc Natl Acad Sci USA, 2012, 109(7), 2497-502) was performed in 96-well flat bottom plates seeded with murine mastocytoma P815 cells overexpressing hTDO2 (prepared as described in Pilotte et al., PNAS, 2012, 109(7), 2497-2502), at a concentration of 5×10^4 cells/well in a final volume of 200 μL. To determine TDO or IDO activity, the cells were incubated overnight at 37° C. at 5% CO2 in IMDM (Invitrogen) supplemented with 2% FBS and 2% penicillin/streptomycin in the presence of the compounds of the present invention, at different concentrations. The cells may be obtained from the American Type Cuylture Collecion [ATCC® TIB-64™ or commercially, e.g., from Sigma-Aldrich or Life Technologies.]
The plates were then centrifuged 5 min at 1000 rpm, and 100 μL of the supernatant were collected in a conical plate, 30 uL of TCA 30% were added and a further centrifugated at 3000×g for 10 minutes. 100 μL of the supernatant were collected in a flat bottomed plate and 100 μL of 2% (w/v) 4-(dimethylamino)-benzaldehyde in acetic acid and incubated for 5 min at room temperature. Kynurenine concentrations were determined by measuring the absorbance at 480 nm. A standard curve was made with pure kynurenine. The TDO activity was measured as described above using ten serial concentrations of the compounds of the present invention. Data were fitted using the Prism™ software (GraphPad Software, Inc.) using standard parameters.

[3] = molecular target: T3, human glioblastoma A172 cells, naturally expressing hTDO2 (Homo sapiens, UniProt P48775); assay: Cellular assay for TDO2 activity, A172 cells; assay type: cell-based; settings: overnight incubation, kynurenine in supernatant
T3 construct: human glioblastoma A172 cells, naturally expressing hTDO2; endogenous in cells; host or cells: human glioblastoma A172 cells (ATCC CRL-1620)
T3 sequence (P48775 whole entry): as above
How it was run: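 A172 human glioblastoma cells naturally expressing TDO2, seeded at 1.25×10^4 cells/well, were incubated overnight at 37 °C in IMDM with 2% FBS and ten serial compound concentrations. Supernatant kynurenine, after TCA precipitation and Ehrlich's reagent, was read at 480 nm against a kynurenine standard curve; data curve-fitted.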

T1 sequence (P48775 whole entry): as above

Structure (SMILES) | IC50 [1] | IC50 [2] | IC50 [3]
CS(=O)(=O)NCc1nc2cc(-c3c[nH]c4cc(F)ccc34)ccc2o1 [Compound 70, N-((5-(6-fluoro-1H-indol-3-yl)benzo[d]oxazol-2-yl)methyl)methanesulfonamide] |  | 251 nM | 435 nM
Fc1ccc2c(-c3ccc4nn(CC5CCNCC5)cc4c3)c[nH]c2c1 [Compound 77, 5-(6-fluoro-1H-indol-3-yl)-2-(piperidin-4-ylmethyl)-2H-indazole] |  | 246 nM | 265 nM
Fc1ccc2c(-c3ccc4[nH]c(CN5CCOCC5)nc4c3)c[nH]c2c1 [Compound 45, 4-((5-(6-fluoro-1H-indol-3-yl)-1H-benzo[d]imidazol-2-yl)methyl)morpholine] |  | 595 nM | 
NC(=O)Cc1nc2ccc(-c3c[nH]c4cc(F)ccc34)cc2[nH]1 [Compound 60, 2-(6-(6-fluoro-1H-indol-3-yl)-1H-benzo[d]imidazol-2-yl)acetamide] |  | 638 nM | 
CS(=O)(=O)N1CCN(Cc2nc3cc(-c4c[nH]c5cc(F)ccc45)ccc3[nH]2)CC1 [Compound 34, 5-(6-fluoro-1H-indol-3-yl)-2-((4-(methylsulfonyl)piperazin-1-yl)methyl)-1H-benzo[d]imidazole] |  | 863 nM | 
CS(=O)(=O)NCCc1nc2ccc(-c3c[nH]c4cc(F)ccc34)cc2[nH]1 [Compound 37, N-(2-(6-(6-fluoro-1H-indol-3-yl)-1H-benzo[d]imidazol-2-yl)ethyl)methanesulfonamide] |  | 1530 nM | 
CS(=O)(=O)N1CCC(c2nc3ccc(-c4c[nH]c5cc(F)ccc45)cc3[nH]2)CC1 [Compound 40, 6-(6-fluoro-1H-indol-3-yl)-2-(1-(methylsulfonyl)piperidin-4-yl)-1H-benzo[d]imidazole] |  | 750 nM | 
CN1CCN(Cc2nc3ccc(-c4c[nH]c5cc(F)ccc45)cc3[nH]2)CC1 [Compound 33, 6-(6-fluoro-1H-indol-3-yl)-2-((4-methylpiperazin-1-yl)methyl)-1H-benzo[d]imidazole] |  | 635 nM | 
CC(=O)NCCc1nc2ccc(-c3c[nH]c4cc(F)ccc34)cc2[nH]1 [Compound 36, N-(2-(6-(6-fluoro-1H-indol-3-yl)-1H-benzo[d]imidazol-2-yl)ethyl)acetamide] |  | 1130 nM | 
CS(=O)(=O)CCc1nc2cc(-c3c[nH]c4cc(F)ccc34)ccc2[nH]1 [Compound 38, 5-(6-fluoro-1H-indol-3-yl)-2-(2-(methylsulfonyl)ethyl)-1H-benzo[d]imidazole] |  | 505 nM | 512 nM
CS(=O)(=O)NCc1nc2ccc(-c3c[nH]c4cc(F)ccc34)cc2[nH]1 [Compound 32, N-((6-(6-fluoro-1H-indol-3-yl)-1H-benzo[d]imidazol-2-yl)methyl)methanesulfonamide] |  | 460 nM | 
CN1CCN(Cc2nc3cc(-c4c[nH]c5cc(F)ccc45)ccc3o2)CC1 [Compound 62, 5-(6-fluoro-1H-indol-3-yl)-2-((4-methylpiperazin-1-yl)methyl)benzo[d]oxazole] |  | 210 nM | 335 nM
NCC(=O)NCc1nc2ccc(-c3c[nH]c4cc(F)ccc34)cc2[nH]1 [Compound 31, 2-amino-N-((6-(6-fluoro-1H-indol-3-yl)-1H-benzo[d]imidazol-2-yl)methyl)acetamide] |  | 2300 nM | 
Fc1ccc2c(-c3ccc4nc(C5CCNCC5)[nH]c4c3)c[nH]c2c1 [Compound 39, 6-(6-fluoro-1H-indol-3-yl)-2-(piperidin-4-yl)-1H-benzo[d]imidazole] |  | 2860 nM | 

Now those with a lower IC50 [2], led by results:

IC50 [1] | IC50 [2] | IC50 [3] | Structure (SMILES)
 | 203 nM | 284 nM | Fc1ccc2c(-c3ccc4nc(CN5CCOCC5)oc4c3)c[nH]c2c1 [Compound 66, 6-(6-fluoro-1H-indol-3-yl)-2-(morpholinomethyl)benzo[d]oxazole]
 | 176 nM | 501 nM | NC(=O)Cn1c(=O)oc2cc(-c3c[nH]c4cc(F)ccc34)ccc21 [Compound 64, 2-(6-(6-fluoro-1H-indol-3-yl)-2-oxobenzo[d]oxazol-3(2H)-yl)acetamide]
586 nM | 154 nM | 178 nM | Fc1ccc2c(-c3ccc4cn[nH]c4c3)c[nH]c2c1 [Compound 1, 6-(6-fluoro-1H-indol-3-yl)-1H-indazole]
388 nM | 150 nM |  | Cc1nc2cc(-c3c[nH]c4cc(F)ccc34)ccc2[nH]1 [Compound 26, 5-(6-fluoro-1H-indol-3-yl)-2-methyl-1H-benzo[d]imidazole]
 | 109 nM | 335 nM | O=c1[nH]c2ccc(-c3c[nH]c4cc(F)ccc34)cc2[nH]1 [Compound 65, 5-(6-fluoro-1H-indol-3-yl)-1H-benzo[d]imidazol-2(3H)-one]
 | 109 nM |  | Cc1nc2ccc(-c3c[nH]c4cc(F)ccc34)cc2o1 [Compound 54, 6-(6-fluoro-1H-indol-3-yl)-2-methylbenzo[d]oxazole]
 | 100 nM | 479 nM | Fc1ccc2c(-c3ccc4ocnc4c3)c[nH]c2c1 [Compound 47, 5-(6-fluoro-1H-indol-3-yl)benzo[d]oxazole]
 | 92 nM | 143 nM | CC(=O)NCc1nc2ccc(-c3c[nH]c4cc(F)ccc34)cc2o1 [Compound 75, N-((6-(6-fluoro-1H-indol-3-yl)benzo[d]oxazol-2-yl)methyl)acetamide]
 | 82 nM | 149 nM | Fc1ccc2c(-c3ccc4nc(CN5CCNCC5)oc4c3)c[nH]c2c1 [Compound 78, 6-(6-fluoro-1H-indol-3-yl)-2-(piperazin-1-ylmethyl)benzo[d]oxazole]
 | 79 nM |  | Fc1ccc2c(-c3ccc4ncoc4c3)c[nH]c2c1 [Compound 53, 6-(6-fluoro-1H-indol-3-yl)benzo[d]oxazole]
 | 78 nM | 218 nM | CN1CCN(Cc2nc3ccc(-c4c[nH]c5cc(F)ccc45)cc3o2)CC1 [Compound 68, 6-(6-fluoro-1H-indol-3-yl)-2-((4-methylpiperazin-1-yl)methyl)benzo[d]oxazole]
 | 72 nM | 152 nM | CS(=O)(=O)NCc1nc2ccc(-c3c[nH]c4cc(F)ccc34)cc2o1 [Compound 74, N-((6-(6-fluoro-1H-indol-3-yl)benzo[d]oxazol-2-yl)methyl)methanesulfonamide]
